pIC50: −log10 of the molar value.

What is called pIC50 is the negative decadic logarithm of the IC50, by convention in mol/L.

The assay addresses T1, full-length human PKCι (Homo sapiens, UniProt P41743).
T1 construct: Recombinant, full-length human PKCι expressed in Sf21 insect cells is also commercially available; purchased; host or cells: Sf21 insect cells
T1 sequence (P41743 1-596): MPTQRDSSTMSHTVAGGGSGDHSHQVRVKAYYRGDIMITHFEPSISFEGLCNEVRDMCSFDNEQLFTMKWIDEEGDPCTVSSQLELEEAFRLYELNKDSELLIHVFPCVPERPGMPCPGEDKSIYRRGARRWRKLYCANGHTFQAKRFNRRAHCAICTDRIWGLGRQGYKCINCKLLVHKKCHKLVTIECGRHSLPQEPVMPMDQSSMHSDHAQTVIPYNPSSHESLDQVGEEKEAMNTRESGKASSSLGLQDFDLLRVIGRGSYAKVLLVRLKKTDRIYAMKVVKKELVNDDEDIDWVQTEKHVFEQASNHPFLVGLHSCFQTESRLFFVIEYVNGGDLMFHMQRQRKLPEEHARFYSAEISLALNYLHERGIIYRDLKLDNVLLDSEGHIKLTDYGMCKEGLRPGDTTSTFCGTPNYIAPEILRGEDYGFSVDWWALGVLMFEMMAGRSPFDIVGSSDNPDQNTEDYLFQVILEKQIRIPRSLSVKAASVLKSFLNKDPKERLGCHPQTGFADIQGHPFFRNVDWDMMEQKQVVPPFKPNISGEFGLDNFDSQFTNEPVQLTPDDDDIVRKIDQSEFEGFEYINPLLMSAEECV
Briefly: PKCι IC50 IMAP fluorescence polarisation assay, full-length enzyme. It counts as biochemical. The conditions noted are these: full length PKCi at 15 μM ATP; read-out: IC50 in IMAP assay against full length PKCi. On the technique in general: In fluorescence polarisation assays a small probe gives low polarisation when free and higher when bound to something large.
Regarding `CCc1cc(-c2csc3c(NC[C@@H](N)Cc4ccccc4)nc(-c4ccncc4)nc23)[nH]n1` [compound 571, (S)-N*1*-[7-(5-Ethyl-2H-pyrazol-3-yl)-2-pyridin-4-yl-thieno[3,2-d]pyrimidin-4-yl]-3-phenyl-propane-1,2-diamine], the pIC50 is over 7.00.

In the case of `N[C@H](CNc1nc(-c2ccncc2)nc2c(-c3ccon3)csc12)Cc1ccccc1` [compound 572, (S)-N*1*-(7-Isoxazol-3-yl-2-pyridin-4-yl-thieno[3,2-d]pyrimidin-4-yl)-3-phenyl-propane-1,2-diamine], the pIC50 is 6.00 to 7.00.

Take `c1ccc(Nc2cc(-c3nc(N[C@@H]4CCNC4)c4sccc4n3)ccn2)cc1` [compound 573, [2-(2-Phenylamino-pyridin-4-yl)-thieno[3,2-d]pyrimidin-4-yl]-(R)-pyrrolidin-3-yl-amine]: the pIC50 is 5.00 to 6.00.

With `O=C(Nc1cc(-c2nc(N[C@@H]3CCNC3)c3sccc3n2)ccn1)c1ccco1` [compound 574, Furan-2-carboxylic acid {4-[4-((R)-pyrrolidin-3-ylamino)-thieno[3,2-d]pyrimidin-2-yl]-pyridin-2-yl}-amide], the pIC50 was 5.00 to 6.00.

As to `O=C(Nc1ccccc1)Nc1cc(-c2nc(N[C@@H]3CCNC3)c3sccc3n2)ccn1` [compound 575, 1-Phenyl-3-{4-[4-((R)-pyrrolidin-3-ylamino)-thieno[3,2-d]pyrimidin-2-yl]-pyridin-2-yl}-urea], the pIC50 is 6.00 to 7.00.

For the molecule `O=S(=O)(Nc1cc(-c2nc(N[C@@H]3CCNC3)c3sccc3n2)ccn1)c1ccccc1` [compound 576, N-{4-[4-((R)-Pyrrolidin-3-ylamino)-thieno[3,2-d]pyrimidin-2-yl]-pyridin-2-yl}-benzenesulfonamide], the pIC50 was 4.40 to 5.00. The value for `c1cnc(Nc2cc(-c3nc(N[C@@H]4CCNC4)c4sccc4n3)ccn2)cn1` [compound 577, {2-[2-(Pyrazin-2-ylamino)-pyridin-4-yl]-thieno[3,2-d]pyrimidin-4-yl}-(R)-pyrrolidin-3-yl-amine] was 6.00 to 7.00. Take `O=C(Nc1cc(-c2nc(N[C@@H]3CCNC3)c3sccc3n2)ccn1)[C@@H]1CCCO1` [compound 578, (S)-Tetrahydro-furan-2-carboxylic acid {4-[4-((R)-pyrrolidin-3-ylamino)-thieno[3,2-d]pyrimidin-2-yl]-pyridin-2-yl}-amide]: the pIC50 is 6.00 to 7.00. The value for `Fc1cnc(Nc2ccccc2)cc1-c1nc(N[C@@H]2CCNC2)c2sccc2n1` [compound 579, [2-(5-Fluoro-2-phenylamino-pyridin-4-yl)-thieno[3,2-d]pyrimidin-4-yl]-(R)-pyrrolidin-3-yl-amine] was 5.00 to 6.00; that for `Fc1cnc(Nc2cnccn2)cc1-c1nc(N[C@@H]2CCNC2)c2sccc2n1` [compound 580, {2-[5-Fluoro-2-(pyrazin-2-ylamino)-pyridin-4-yl]-thieno[3,2-d]pyrimidin-4-yl}-(R)-pyrrolidin-3-yl-amine] was 6.00 to 7.00; that for `CN(C)C(=O)Nc1cc(-c2nc(N[C@@H]3CCNC3)c3sccc3n2)ccn1` [compound 581, 1,1-Dimethyl-3-{4-[4-((R)-pyrrolidin-3-ylamino)-thieno[3,2-d]pyrimidin-2-yl]-pyridin-2-yl}-urea] was 5.00 to 6.00. Consider `CC(C)(C)NC(=O)Nc1cc(-c2nc(N[C@@H]3CCNC3)c3sccc3n2)ccn1` [compound 582, 1-tert-Butyl-3-{4-[4-((R)-pyrrolidin-3-ylamino)-thieno[3,2-d]pyrimidin-2-yl]-pyridin-2-yl}-urea], for which the pIC50 is 5.00 to 6.00.

For the molecule `CNC(=O)Nc1cc(-c2nc(N[C@@H]3CCNC3)c3sccc3n2)ccn1` [compound 583, 1-Methyl-3-{4-[4-((R)-pyrrolidin-3-ylamino)-thieno[3,2-d]pyrimidin-2-yl]-pyridin-2-yl}-urea], the negative-log IC50 (pIC50) is 5.00 to 6.00.

Regarding `O=C(Nc1cc(-c2nc(N[C@@H]3CCNC3)c3sccc3n2)ccn1)N1CCCCC1` [compound 584, Piperidine-1-carboxylic acid {4-[4-((R)-pyrrolidin-3-ylamino)-thieno[3,2-d]pyrimidin-2-yl]-pyridin-2-yl}-amide], the pIC50 was 5.00 to 6.00. The value for `Fc1c(-c2nc(N[C@@H]3CCNC3)c3sccc3n2)ccnc1Nc1cnccn1` [compound 585, {2-[3-Fluoro-2-(pyrazin-2-ylamino)-pyridin-4-yl]-thieno[3,2-d]pyrimidin-4-yl}-(R)-pyrrolidin-3-yl-amine] was 5.00 to 6.00; that for `C[C@@H](Nc1cc(-c2nc(N[C@@H]3CCNC3)c3sccc3n2)ccn1)c1ccccc1` [compound 586, {2-[2-((R)-1-Phenyl-ethylamino)-pyridin-4-yl]-thieno[3,2-d]pyrimidin-4-yl}-(R)-pyrrolidin-3-yl-amine] was 6.00 to 7.00. On to `C[C@H](Nc1cc(-c2nc(N[C@@H]3CCNC3)c3sccc3n2)ccn1)c1ccccc1` [compound 587, {2-[2-((S)-1-Phenyl-ethylamino)-pyridin-4-yl]-thieno[3,2-d]pyrimidin-4-yl}-(R)-pyrrolidin-3-yl-amine], for which the pIC50 was 6.00 to 7.00. As for `Cc1ccc(Nc2cc(-c3nc(N[C@@H]4CCNC4)c4sccc4n3)ccn2)nn1` [compound 588, {2-[2-(6-Methyl-pyridazin-3-ylamino)-pyridin-4-yl]-thieno[3,2-d]pyrimidin-4-yl}-(R)-pyrrolidin-3-yl-amine], the figure is 6.00 to 7.00; as for `CC[C@H](Nc1cc(-c2nc(N[C@@H]3CCNC3)c3sccc3n2)ccn1)c1ccccc1` [compound 589, {2-[2-((S)-1-Phenyl-propylamino)-pyridin-4-yl]-thieno[3,2-d]pyrimidin-4-yl}-(R)-pyrrolidin-3-yl-amine], 5.00 to 6.00; as for `CC[C@@H](Nc1cc(-c2nc(N[C@@H]3CCNC3)c3sccc3n2)ccn1)c1ccccc1` [compound 590, {2-[2-((R)-1-Phenyl-propylamino)-pyridin-4-yl]-thieno[3,2-d]pyrimidin-4-yl}-(R)-pyrrolidin-3-yl-amine], 5.00 to 6.00. The value for `C[C@H](O)CNc1cc(-c2nc(N[C@@H]3CCNC3)c3sccc3n2)ccn1` [compound 591, (S)-1-{4-[4-((R)-Pyrrolidin-3-ylamino)-thieno[3,2-d]pyrimidin-2-yl]-pyridin-2-ylamino}-propan-2-ol] was 5.00 to 6.00. The value for `C[C@@H](O)CNc1cc(-c2nc(N[C@@H]3CCNC3)c3sccc3n2)ccn1` [compound 592, (R)-1-{4-[4-((R)-Pyrrolidin-3-ylamino)-thieno[3,2-d]pyrimidin-2-yl]-pyridin-2-ylamino}-propan-2-ol] was 5.00 to 6.00.

Take `O[C@@H](CNc1cc(-c2nc(N[C@@H]3CCNC3)c3sccc3n2)ccn1)c1ccccc1` [compound 593, (R)-1-Phenyl-2-{4-[4-((R)-pyrrolidin-3-ylamino)-thieno[3,2-d]pyrimidin-2-yl]-pyridin-2-ylamino}-ethanol]: the pIC50 was 5.00 to 6.00. As for `c1cc(-c2nc(N[C@@H]3CCNC3)c3sccc3n2)cc(NC2CC2)n1` [compound 594, [2-(2-Cyclopropylamino-pyridin-4-yl)-thieno[3,2-d]pyrimidin-4-yl]-(R)-pyrrolidin-3-yl-amine], the figure is 5.00 to 6.00.

Regarding `O=C(Nc1cc(-c2nc(N[C@@H]3CCNC3)c3sccc3n2)ccn1)c1cccs1` [compound 595, Thiophene-2-carboxylic acid {4-[4-((R)-pyrrolidin-3-ylamino)-thieno[3,2-d]pyrimidin-2-yl]-pyridin-2-yl}-amide], the pIC50 was 6.00 to 7.00.

As to `COc1cccc(C(=O)Nc2cc(-c3nc(N[C@@H]4CCNC4)c4sccc4n3)ccn2)c1` [compound 596, 3-Methoxy-N-{4-[4-((R)-pyrrolidin-3-ylamino)-thieno[3,2-d]pyrimidin-2-yl]-pyridin-2-yl}-benzamide], the pIC50 was 6.00 to 7.00. As for `c1cc(-c2nc(N[C@@H]3CCNC3)c3sccc3n2)cc(NCC2CC2)n1` [compound 597, {2-[2-(Cyclopropylmethyl-amino)-pyridin-4-yl]-thieno[3,2-d]pyrimidin-4-yl}-(R)-pyrrolidin-3-yl-amine], the figure is 5.00 to 6.00. In the case of `c1ccc(CNc2cc(-c3nc(N[C@@H]4CCNC4)c4sccc4n3)ccn2)cc1` [compound 598, [2-(2-Benzylamino-pyridin-4-yl)-thieno[3,2-d]pyrimidin-4-yl]-(R)-pyrrolidin-3-yl-amine], the pIC50 is 5.00 to 6.00. On to `O=C(Nc1cc(-c2nc(N[C@@H]3CCNC3)c3sccc3n2)ccn1)C1CC1` [compound 599, Cyclopropanecarboxylic acid {4-[4-((R)-pyrrolidin-3-ylamino)-thieno[3,2-d]pyrimidin-2-yl]-pyridin-2-yl}-amide], for which the pIC50 was 6.00 to 7.00.

Turning to `c1ccc(Nc2cc(-c3nc(N[C@@H]4CCNC4)c4sccc4n3)ccn2)nc1` [compound 600, {2-[2-(Pyridin-2-ylamino)-pyridin-4-yl]-thieno[3,2-d]pyrimidin-4-yl}-(R)-pyrrolidin-3-yl-amine], the pIC50 is 5.00 to 6.00. As for `c1ccc(-c2ccc(Nc3cc(-c4nc(N[C@@H]5CCNC5)c5sccc5n4)ccn3)nc2)cc1` [compound 601, {2-[2-(5-Phenyl-pyridin-2-ylamino)-pyridin-4-yl]-thieno[3,2-d]pyrimidin-4-yl}-(R)-pyrrolidin-3-yl-amine], the figure is 6.00 to 7.00.

The record behind these values is patent publication US10183950B2, “Thienopyrimidine inhibitors of atypical protein kinase C” (Cancer Research Technology Limited, priority 2011, dated 2019).
